Assay results taken from US20100273656A1, “COMPOSITION AND METHOD FOR SELECTIVE HERBICIDE” (priority 2002, published 2010).

How the values were obtained:
dandelions [1] = experiment: Example 16 metal salts of EDTA, greenhouse dandelion mortality; type: in vivo, Taraxacum officinale; settings: for Dead Dandelion (#/20): pH 7
Description: This test investigated various metal chelates. All chelate solutions contained 0.4% metal ions with 10% excess chelator, and were adjusted to pH 7. For the combinations, these 4 solutions were mixed together in a 1:1 ratio. The solutions were sprayed onto greenhouse grown dandelions at a rate of 100 ml/m^2. The test was re-sprayed after 7 days.

white clover [2] = experiment: Example 23 Cu-, Mn- or ZnHEDTA with Killex, white clover; type: in vivo
Description: (§1) Plants were fertilized with an all purpose water-soluble fertilizer mix of 20-20-20 (N-P-K; Plant-Prod®) as needed. All broadleaf weeds were grown individually in a 2¼-inch pot until they were a suitable size for herbicide tests (actual weed size is reported in examples below). Perennial ryegrass was also grown in 2¼-inch pots, however many grass seeds were sown in the pot to simulate a small section of turf. Grass plants were continually trimmed to a height of 4 cm, simulating that of a homeowner's lawn. For field tests, plots ¼ m^2 in size were marked out in areas containing the targeted broadleaf weed species growing in turf grass. Plots were continually mowed to simulate a homeowner's lawn. […] In all of the examples, the amounts of the various herbicide components are identified as a percent on a weight basis.
(§2) Killex® (Scotts Canada, Ltd., Ontario, Canada) is a commonly used selective lawn herbicide and was used as the commercial herbicide for herbicide combinations. The labeled dilution and application rates for Killex® are 6 ml into 1 L of solution (0.6%) applied at 200 ml/m^2.
(§3) All visual plant damage assessments were made using a quantitative rating scale; percent control relative to the untreated check (0=no effect; 100=plant death).
(§4) Materials and Methods: This trial was conducted in the greenhouse. Ten white clover plants and 10 pots of perennial ryegrass were selected for each treatment. Herbicide solutions were prepared using deionized water. The treatments were applied using a hand-trigger sprayer at 200 ml/m^2. All treatments were applied once. Phytotoxicity (%) was assessed 4 and 7 days after treatment (A4 and A7).

perennial ryegrass [3] = experiment: Example 23 Cu-, Mn- or ZnHEDTA with Killex, perennial ryegrass; type: in vivo
Description: as §1, §2, §3, §4

dandelions [4] = experiment: Example 7 potassium nonanoate with FeHEDTA, greenhouse dandelions; type: in vivo, Taraxacum officinale
Description: (§5) The following non-limiting examples serve to further describe the invention. Unless otherwise specified, all of the iron solutions were made using the same molar concentration of iron ion as chelating agent. All of the outside tests were done on areas of mixed grass and dandelions that were at least 2 months old. For the greenhouse tests, dandelions were grown in a commercial greenhouse mix, using supplemental lighting and heating. Each plant was grown in a 2¼ inch pot to a minimum diameter of 20 cm. All of the solutions were sprayed onto the plants at a rate of 100 ml/m^2. The ferrous sulfate formulations that were used in examples 1, 2, 8 and 9 contained 1% iron (180 mM), 18 mM EDTA, 1% citric acid and 0.5% urea. In all of the examples, the amount of iron is identified in brackets as the percent iron on a weight basis.
(§6) All plant damage was assessed using a qualitative rating scale from 0 to 9.
This test compared the damaged caused by combinations of fatty acid and FeHEDTA. FeHEDTA was used at a concentration to 35.8 mM. The treatment with 0.1% Fe contained twice the molar amount of chelating agent as iron. The treatment with 0.2% iron contained the same molar amount of chelating agent as iron Potassium nonanoate (KC9) was used at 0.84%. The plants were re-sprayed 8 days after the first spray.

white clover [5] = experiment: Example 17 iron chelates with Killex, white clover; type: in vivo
Description: as §1, §2, §3
(§7) Materials and Methods: This trial was conducted in the greenhouse. Nine pots of white clover and 10 pots of perennial ryegrass were selected for each treatment. Herbicidal solutions were prepared using deionized water. The treatments were applied using a handheld trigger sprayer at 200 ml/m^2. All treatments were applied once. Phytotoxicity (%) was assessed 4, 7, and 14 days after application (A4, A7, and A14).

dandelions [6] = experiment: Example 1 field test of iron chelates, dandelion damage; type: in vivo, Taraxacum officinale; settings: sprayed once at 100 ml/m^2, 5 days after spraying
Description: as §5, §6
(§8) All of the iron chelates were sprayed once at 0.2% Fe^+3 (35.8 mM), at a volume of 100 ml/m^2 onto 0.5 m^2 areas of mixed grass and dandelions. The spraying of the test was followed by 2 days of rain-free weather. Observations were made 5 days after spraying.

grass = experiment: Example 1 field test of iron chelates, grass damage; type: in vivo; settings: field, sprayed once at 100 ml/m^2, 5 days after spraying
Description: as §5, §6, §8

dandelion [7] = experiment: Example 14 field dandelion test of iron chelates and 50:50 mixtures; type: in vivo, Taraxacum officinale; design: Surviving Dandelions (%): concentration or dose not given beside the values
Description: Solutions were made of FeHEDTA (0.2% Fe), FeEDTA (0.2% Fe), FeEDDS (0.4% Fe), and FeMGDA (0.4% Fe). For the combinations, these 4 solutions were mixed together in a 1:1 ratio. The plots (0.25 m^2) were sprayed 3 times at weekly intervals at a rate of 0.1 L/m^2. The plots contained a mixture of dandelion and hard fescue turfgrass.

perennial ryegrass [8] = experiment: Example 17 iron chelates with Killex, perennial ryegrass; type: in vivo
Description: as §1, §2, §3, §7

dandelion [9] = experiment: Example 21 Fe chelates with Killex, dandelion; type: in vivo, Taraxacum officinale; settings: A29 = 29 days after treatment
Description: as §1, §2, §3
(§9) Materials and Methods: This trial was conducted in the greenhouse. […] Phytotoxicity (%) was assessed 29 days after treatment (A29).

perennial ryegrass [10] = experiment: Example 21 Fe chelates with Killex, perennial ryegrass; type: in vivo; settings: A29 = 29 days after treatment
Description: as §1, §2, §3, §9

[11] = day 10 (re-sprayed after 7 days)
[12] = A4 = 4 days after application, 0=no effect, 100=plant death
[13] = A14 = 14 days after application
[14] = day 6, sprayed 3 times at weekly intervals

O=C([O-])CN(CCN(CC(=O)O)CC(=O)O)CC(=O)[O-].[Zn+2] [Zn EDTA (0.4% Zn)]
Dead Dandelion (#/20) (dandelions [1]; day 7): 0 #/20 | Dead Dandelion (#/20) (dandelions [1]; [11]): 0 #/20

O=C([O-])CN(CCN(CC(=O)[O-])CC(=O)O)CC(=O)[O-].[Al+3] [Al EDTA (0.4% Al)]
Dead Dandelion (#/20) (dandelions [1]; day 7): 0 #/20 | Dead Dandelion (#/20) (dandelions [1]; [11]): 0 #/20

O=C([O-])CN(CCN(CC(=O)O)CC(=O)O)CC(=O)[O-].[Cu+2] [Cu EDTA (0.4% Cu)]
Dead Dandelion (#/20) (dandelions [1]; day 7): 0 #/20 | Dead Dandelion (#/20) (dandelions [1]; [11]): 4 #/20

O=C([O-])CN(CCO)CCN(CC(=O)[O-])CC(=O)[O-].[Mn+2] [MnHEDTA 0.4% Mn]
Phytotoxicity (%) against white clover (white clover [2]; A4): 9% | Phytotoxicity (%) against white clover (white clover [2]; A7): 12% | Phytotoxicity (%) on perennial ryegrass (perennial ryegrass [3]; A4): 1% | Phytotoxicity (%) on perennial ryegrass (perennial ryegrass [3]; A7): 1%

CCCCCCCCC(=O)[O-].[K+] [KC9, Potassium nonanoate]
Dead Plants (#/10) (dandelions [4]; 8 + 5 days after spraying): 0 #/10 | Plant Damage (0 to 9) (dandelions [4]; 8 + 5 days after spraying (re-sprayed after 8 days)): 0.6 0 to 9 | Plant Damage (0 to 9) (dandelions [4]; 7 days after spraying): 0.0 0 to 9

FeEDTA
Phytotoxicity (%) against white clover (white clover [5]; [12]): 15% | Phytotoxicity (%) against white clover (white clover [5]; A7 = 7 days after application): 15% | Phytotoxicity (%) against white clover (white clover [5]; [13]): 6% | Dandelion Damage (0 to 9) (dandelions [6]): 8.3 0 to 9 | Grass Damage (0 to 9) (grass): 1 | herbicidal comparison of metal EDTA chelates, in words (dandelions [1]; Example 16, text): better herbicide than Al EDTA, Cu EDTA and ZnEDTA | Dead Dandelion (#/20) (dandelions [1]; day 7): 10 #/20 | Dead Dandelion (#/20) (dandelions [1]; [11]): 17 #/20 | Area Covered by Dandelion (%) (dandelion [7]; day 0): 30% | Dandelion Count (#/0.25 m^2) (dandelion [7]; day 0): 56 #/0.25 m^2 | Dandelion Count (#/0.25 m^2) (dandelion [7]; day 6): 33 #/0.25 m^2 | Surviving Dandelions (%) (dandelion [7]; day 6): 59% | Area Covered by Dandelion (%) (dandelion [7]; [14]): 10% | Dandelion Necrosis (%) (dandelion [7]; day 11): 90% | Dandelion Count (#/0.25 m^2) (dandelion [7]; day 13): 20 #/0.25 m^2 | Surviving Dandelions (%) (dandelion [7]; day 13): 36% | Area Covered by Dandelion (%) (dandelion [7]; day 15): 7% | Dandelion Necrosis (%) (dandelion [7]; day 18): 98% | Area Covered by Dandelion (%) (dandelion [7]; day 21): 1% | Dandelion Count (#/0.25 m^2) (dandelion [7]; day 21): 19 #/0.25 m^2 | Surviving Dandelions (%) (dandelion [7]; day 21): 34% | Dandelion Necrosis (%) (dandelion [7]; day 33): 90% | Phytotoxicity (%) against perennial ryegrass (perennial ryegrass [8]; A4): 4% | Phytotoxicity (%) against perennial ryegrass (perennial ryegrass [8]; A7): 2% | Phytotoxicity (%) against perennial ryegrass (perennial ryegrass [8]; A14): 0%

CC(C(=O)[O-])N(CC(=O)[O-])CC(=O)[O-].[Fe+3] (stereo not shown) [FeMGDA]
Phytotoxicity (%) against white clover (white clover [5]; [12]): 4% | Phytotoxicity (%) against white clover (white clover [5]; A7 = 7 days after application): 5% | Phytotoxicity (%) against white clover (white clover [5]; [13]): 2% | Phytotoxicity (%) against dandelion (dandelion [9]): 12% | Phytotoxicity (%) on perennial ryegrass (perennial ryegrass [10]): 0% | Area Covered by Dandelion (%) (dandelion [7]; day 0): 30% | Dandelion Count (#/0.25 m^2) (dandelion [7]; day 0): 72 #/0.25 m^2 | Dandelion Count (#/0.25 m^2) (dandelion [7]; day 6): 71 #/0.25 m^2 | Surviving Dandelions (%) (dandelion [7]; day 6): 99% | Area Covered by Dandelion (%) (dandelion [7]; [14]): 17% | Dandelion Necrosis (%) (dandelion [7]; day 11): 85% | Dandelion Count (#/0.25 m^2) (dandelion [7]; day 13): 43 #/0.25 m^2 | Surviving Dandelions (%) (dandelion [7]; day 13): 60% | Area Covered by Dandelion (%) (dandelion [7]; day 15): 12% | Dandelion Necrosis (%) (dandelion [7]; day 18): 99% | Area Covered by Dandelion (%) (dandelion [7]; day 21): 2% | Dandelion Count (#/0.25 m^2) (dandelion [7]; day 21): 19 #/0.25 m^2 | Surviving Dandelions (%) (dandelion [7]; day 21): 26% | Dandelion Necrosis (%) (dandelion [7]; day 33): 80% | Phytotoxicity (%) against perennial ryegrass (perennial ryegrass [8]; A4): 0% | Phytotoxicity (%) against perennial ryegrass (perennial ryegrass [8]; A7): 0% | Phytotoxicity (%) against perennial ryegrass (perennial ryegrass [8]; A14): 0%

O=C([O-])CN(CCN(CCO)CC(=O)O)CC(=O)[O-].[Zn+2] [ZnHEDTA 0.4% Zn]
Phytotoxicity (%) against white clover (white clover [2]; A4): 4% | Phytotoxicity (%) against white clover (white clover [2]; A7): 3% | Phytotoxicity (%) on perennial ryegrass (perennial ryegrass [3]; A4): 1% | Phytotoxicity (%) on perennial ryegrass (perennial ryegrass [3]; A7): 0%

O=C([O-])CN(CCO)CCN(CC(=O)[O-])CC(=O)[O-].[Cu+2] [CuHEDTA 0.4% Cu]
Phytotoxicity (%) against white clover (white clover [2]; A4): 32% | Phytotoxicity (%) against white clover (white clover [2]; A7): 62% | Phytotoxicity (%) on perennial ryegrass (perennial ryegrass [3]; A4): 3% | Phytotoxicity (%) on perennial ryegrass (perennial ryegrass [3]; A7): 3%

[Cl][Fe]([Cl])[Cl] [FeCl3 (0.4% Fe), ferric chloride]
Dead Dandelion (#/20) (dandelions [1]; day 7): 0 #/20 | Dead Dandelion (#/20) (dandelions [1]; [11]): 0 #/20
